Test results as given in patent US6358885B1, “Substituted phenylheterocyclic herbicides” (Mississippi State University, priority 1992, dated 2002).

What was measured:
cotton [1] = experiment: Test C preemergence/postemergence greenhouse plant response rating 0 to 100; type: in vivo, Gossypium hirsutum; details: POSTEMERGENCE; for Plant response rating, Cotton: 0 to 100 scale
In short: (§1)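 Compounds in non-phytotoxic solvent went onto sandy loam before emergence (seeded one day earlier) or onto plants at the one-to-four leaf stage. Duck salad was treated via flood water (~2.5 cm, maintained) over silt loam.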

giant foxtail [2] = experiment: as above; type: in vivo, Setaria faberii; details: POSTEMERGENCE; for Plant response rating, Giant foxtail: 0 to 100 scale
In short: as §1

barley = experiment: as above; type: in vivo, Hordeum vulgare; details: POSTEMERGENCE; for Plant response rating Barley Igri: 0 to 100 scale
In short: as §1

crabgrass = experiment: Test B preemergence/postemergence greenhouse plant response rating 0 to 10; type: in vivo, Digitaria spp.; details: 0 to 10 scale
In short: (§2)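 Test chemicals, dissolved in a non-phytotoxic solvent, were applied to soil at planting and, at the same time, over foliage of seedlings at the one to four leaf stage.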

morningglory = experiment: as above; type: in vivo, Ipomoea hederacea; details: 0 to 10 scale
In short: as §2

umbrella sedge = experiment: Test C flood test plant response rating 0 to 100; type: in vivo, Cyperus difformis; details: for Plant response rating (0 to 100), Umbrella sedge: under POSTEMERGENCE head (flood test species); for Plant response rating Umbrella sedge: flood test species listed under POSTEMERGENCE, 0 to 100 scale
In short: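 Compounds in non-phytotoxic solvent applied preemergence to sandy loam one day after planting, postemergence at the 1–4 leaf stage, or to ~2.5 cm floodwater over silt loam.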

chickweed = experiment: Test C preemergence/postemergence greenhouse plant response rating 0 to 100; type: in vivo, Stellaria media; details: POSTEMERGENCE; for Plant response rating, Chickweed: 0 to 100 scale
In short: as §1

duck salad = experiment: Test C flood test plant response rating 0 to 100; type: in vivo, Heteranthera limosa; details: for Plant response rating (0 to 100), Duck salad: under POSTEMERGENCE head (flood test species); for Plant response rating Duck salad: flood test species listed under POSTEMERGENCE, 0 to 100 scale
In short: as §1

cotton [3] = experiment: Test B preemergence/postemergence greenhouse plant response rating 0 to 10; type: in vivo, Gossypium hirsutum; details: 0 to 10 scale
In short: as §2

pigweed = experiment: Test C preemergence/postemergence greenhouse plant response rating 0 to 100; type: in vivo, Amaranthusretroflexus; details: POSTEMERGENCE; for Plant response rating Pigweed: 0 to 100 scale
In short: as §1

lambsquarters = experiment: as above; type: in vivo, Chenopodium album; details: POSTEMERGENCE; for Plant response rating Lambsquarters: 0 to 100 scale
In short: as §1

cheatgrass = experiment: Test B preemergence/postemergence greenhouse plant response rating 0 to 10; type: in vivo, Bromus secalinus; details: 0 to 10 scale
In short: as §2

rape = experiment: as above; type: in vivo, Brassica napus; details: 0 to 10 scale
In short: as §2

giant foxtail [4] = experiment: as above; type: in vivo, Setaria faberii; details: 0 to 10 scale
In short: as §2

soybean = experiment: Test C preemergence/postemergence greenhouse plant response rating 0 to 100; type: in vivo, Glycine max; details: POSTEMERGENCE; for Plant response rating, Soybean: 0 to 100 scale
In short: as §1

velvetleaf = experiment: as above; type: in vivo, Abutilon theophrasti; details: POSTEMERGENCE; for Plant response rating, Velvetleaf: 0 to 100 scale
In short: as §1

bedstraw = experiment: Test B preemergence/postemergence greenhouse plant response rating 0 to 10; type: in vivo, Galium aparine; details: 0 to 10 scale
In short: as §2

cocklebur = experiment: as above; type: in vivo, Xanthium pensylvanicum; details: 0 to 10 scale
In short: as §2

C=C(Cl)COc1cc(-c2nn3c(c2Cl)CCCC3)c(F)cc1Cl [Compound 40]
1: Plant response rating, Morningglory (morningglory; PREEMERGENCE, Rate 50 g/ha) | Plant response rating, Cotton (cotton [3]; PREEMERGENCE, Rate 50 g/ha)
3: Plant response rating, Morningglory (morningglory; POSTEMERGENCE, Rate 50 g/ha)
50: Plant response rating, Soybean (soybean; 62 g/ha)
4: Plant response rating, Crabgrass (crabgrass; POSTEMERGENCE, Rate 50 g/ha) | Plant response rating, Morningglory (morningglory; Rate 200 g/ha, PREEMERGENCE) | Plant response rating, Cheatgrass (cheatgrass; POSTEMERGENCE, Rate 50 g/ha) | Plant response rating, Cheatgrass (cheatgrass; POSTEMERGENCE, Rate 200 g/ha) | Plant response rating, Cheatgrass (cheatgrass; Rate 200 g/ha, PREEMERGENCE) | Plant response rating, Rape (rape; POSTEMERGENCE, Rate 50 g/ha)
6: Plant response rating, Rape (rape; Rate 200 g/ha, PREEMERGENCE) | Plant response rating, Giant foxtail (giant foxtail [4]; Rate 200 g/ha, POSTEMERGENCE)
10: Plant response rating Umbrella sedge (umbrella sedge; 62 g/ha) | Plant response rating, Cotton (cotton [3]; POSTEMERGENCE, Rate 50 g/ha) | Plant response rating, Cotton (cotton [3]; POSTEMERGENCE, Rate 200 g/ha) | Plant response rating, Bedstraw (bedstraw; POSTEMERGENCE, Rate 50 g/ha) | Plant response rating, Cocklebur (cocklebur; POSTEMERGENCE, Rate 200 g/ha)
7: Plant response rating, Cotton (cotton [3]; Rate 200 g/ha, PREEMERGENCE)
85: Plant response rating Duck salad (duck salad; 125 g/ha)
9: Plant response rating, Morningglory (morningglory; Rate 200 g/ha, POSTEMERGENCE) | Plant response rating, Giant foxtail (giant foxtail [4]; PREEMERGENCE, Rate 50 g/ha) | Plant response rating, Giant foxtail (giant foxtail [4]; Rate 200 g/ha, PREEMERGENCE) | Plant response rating, Bedstraw (bedstraw; PREEMERGENCE, Rate 50 g/ha) | Plant response rating, Bedstraw (bedstraw; Rate 200 g/ha, PREEMERGENCE)
0: Plant response rating, Crabgrass (crabgrass; PREEMERGENCE, Rate 50 g/ha) | Plant response rating (0 to 100), Umbrella sedge (umbrella sedge; Rate 16 g/ha) | Plant response rating (0 to 100), Umbrella sedge (umbrella sedge; Rate 31 g/ha) | Plant response rating (0 to 100), Duck salad (duck salad; Rate 16 g/ha) | Plant response rating, Cheatgrass (cheatgrass; PREEMERGENCE, Rate 50 g/ha)
100: Plant response rating, Cotton (cotton [1]; 62 g/ha) | Plant response rating, Cotton (cotton [1]; 125 g/ha) | Plant response rating (0 to 100), Cotton (cotton [1]; Rate 16 g/ha) | Plant response rating (0 to 100), Cotton (cotton [1]; Rate 31 g/ha) | Plant response rating Pigweed (pigweed; 62 g/ha) | Plant response rating Pigweed (pigweed; 125 g/ha) | Plant response rating Lambsquarters (lambsquarters; 125 g/ha) | Plant response rating, Velvetleaf (velvetleaf; 62 g/ha) | Plant response rating, Velvetleaf (velvetleaf; 125 g/ha)
70: Plant response rating, Giant foxtail (giant foxtail [2]; 125 g/ha) | Plant response rating Umbrella sedge (umbrella sedge; 125 g/ha) | Plant response rating (0 to 100), Lambsquarters (lambsquarters; Rate 16 g/ha) | Plant response rating (0 to 100), Lambsquarters (lambsquarters; Rate 31 g/ha)
20: Plant response rating (0 to 100), Barley Igri (barley; Rate 16 g/ha)
95: Plant response rating (0 to 100), Pigweed (pigweed; Rate 31 g/ha)
65: Plant response rating (0 to 100), Duck salad (duck salad; Rate 31 g/ha)
60: Plant response rating, Giant foxtail (giant foxtail [2]; 62 g/ha) | Plant response rating, Chickweed (chickweed; 62 g/ha) | Plant response rating, Soybean (soybean; 125 g/ha)
5: Plant response rating, Crabgrass (crabgrass; POSTEMERGENCE, Rate 200 g/ha) | Plant response rating, Giant foxtail (giant foxtail [4]; POSTEMERGENCE, Rate 50 g/ha) | Plant response rating, Cocklebur (cocklebur; POSTEMERGENCE, Rate 50 g/ha) | Plant response rating, Cocklebur (cocklebur; PREEMERGENCE, Rate 50 g/ha)
40: Plant response rating (0 to 100), Giant foxtail (giant foxtail [2]; Rate 31 g/ha) | Plant response rating Barley Igri (barley; 125 g/ha) | Plant response rating (0 to 100), Soybean (soybean; Rate 16 g/ha) | Plant response rating (0 to 100), Soybean (soybean; Rate 31 g/ha)
80: Plant response rating Duck salad (duck salad; 62 g/ha) | Plant response rating Lambsquarters (lambsquarters; 62 g/ha)
90: Plant response rating, Chickweed (chickweed; 125 g/ha) | Plant response rating (0 to 100), Pigweed (pigweed; Rate 16 g/ha) | Plant response rating (0 to 100), Velvetleaf (velvetleaf; Rate 16 g/ha) | Plant response rating (0 to 100), Velvetleaf (velvetleaf; Rate 31 g/ha)
30: Plant response rating (0 to 100), Giant foxtail (giant foxtail [2]; Rate 16 g/ha) | Plant response rating Barley Igri (barley; 62 g/ha) | Plant response rating (0 to 100), Barley Igri (barley; Rate 31 g/ha) | Plant response rating (0 to 100), Chickweed (chickweed; Rate 16 g/ha) | Plant response rating (0 to 100), Chickweed (chickweed; Rate 31 g/ha)
8: Plant response rating, Crabgrass (crabgrass; Rate 200 g/ha, PREEMERGENCE) | Plant response rating, Rape (rape; PREEMERGENCE, Rate 50 g/ha) | Plant response rating, Rape (rape; Rate 200 g/ha, POSTEMERGENCE) | Plant response rating, Cocklebur (cocklebur; Rate 200 g/ha, PREEMERGENCE)
